Data reported in patent publication US11878975B2, “Substituted indole compounds useful as TLR inhibitors” (BRISTOL-MYERS SQUIBB COMPANY, priority 2017, dated 2024).

Assays:
Type in all cases: cell-based
human TLR8 = target: T1, human TLR8 (Homo sapiens, UniProt Q9NR97); test: TLR8 inhibition reporter assay (HEK-Blue cells, SEAP reporter, R848 stimulation); details: HEK-Blue cells overexpressing human TLR8, SEAP reporter, R848 15.9 μM
T1 construct: host or cells: HEK-Blue cells
T1 sequence (Q9NR97 27-1041): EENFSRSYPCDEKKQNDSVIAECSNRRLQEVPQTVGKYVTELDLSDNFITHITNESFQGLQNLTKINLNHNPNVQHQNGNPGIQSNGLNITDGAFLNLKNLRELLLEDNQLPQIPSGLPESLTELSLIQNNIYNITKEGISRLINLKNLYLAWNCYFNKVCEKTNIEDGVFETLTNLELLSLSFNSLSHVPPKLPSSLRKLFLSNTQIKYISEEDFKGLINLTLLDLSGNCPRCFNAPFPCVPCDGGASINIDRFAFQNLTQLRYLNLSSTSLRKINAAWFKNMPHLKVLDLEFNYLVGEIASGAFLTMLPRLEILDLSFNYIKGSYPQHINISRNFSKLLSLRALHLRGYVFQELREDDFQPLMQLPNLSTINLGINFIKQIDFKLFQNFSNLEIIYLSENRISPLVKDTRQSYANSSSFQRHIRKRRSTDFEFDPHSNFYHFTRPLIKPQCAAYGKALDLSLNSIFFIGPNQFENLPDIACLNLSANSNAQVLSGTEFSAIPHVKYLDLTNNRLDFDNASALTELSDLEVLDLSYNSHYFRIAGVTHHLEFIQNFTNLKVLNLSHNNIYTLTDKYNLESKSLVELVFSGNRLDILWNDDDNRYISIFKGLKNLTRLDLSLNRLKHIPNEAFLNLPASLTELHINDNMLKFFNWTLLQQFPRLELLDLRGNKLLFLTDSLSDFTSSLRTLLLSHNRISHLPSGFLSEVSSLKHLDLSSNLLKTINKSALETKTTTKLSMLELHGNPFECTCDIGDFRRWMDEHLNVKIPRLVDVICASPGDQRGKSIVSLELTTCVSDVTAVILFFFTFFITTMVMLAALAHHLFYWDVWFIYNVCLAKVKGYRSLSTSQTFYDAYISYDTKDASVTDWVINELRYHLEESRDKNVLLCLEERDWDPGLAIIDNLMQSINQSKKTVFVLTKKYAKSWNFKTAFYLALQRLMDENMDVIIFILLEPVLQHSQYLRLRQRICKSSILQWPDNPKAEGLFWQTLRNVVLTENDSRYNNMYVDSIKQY
Summary of the method: (§1)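 Ligand levels: TLR7 gardiquimod 7.5 μM, TLR8 R848 15.9 μM, TLR9 ODN2006 5 nM, added after 30 min room-temperature compound pre-incubation at 0.05 nM-50 μM. Reporter SEAP read with HEK-Blue Detection reagent after 22 h, 37° C. Inhibition expressed as % reduction relative to agonist-plus-DMSO and known-inhibitor controls.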

human TLR7 = target: T2, human TLR7 (Homo sapiens, UniProt Q9NYK1); test: TLR7 inhibition reporter assay (HEK-Blue cells, SEAP reporter, gardiquimod stimulation); details: HEK-Blue cells overexpressing human TLR7, SEAP reporter, gardiquimod 7.5 μM
T2 construct: host or cells: HEK-Blue cells
T2 sequence (Q9NYK1 27-1049): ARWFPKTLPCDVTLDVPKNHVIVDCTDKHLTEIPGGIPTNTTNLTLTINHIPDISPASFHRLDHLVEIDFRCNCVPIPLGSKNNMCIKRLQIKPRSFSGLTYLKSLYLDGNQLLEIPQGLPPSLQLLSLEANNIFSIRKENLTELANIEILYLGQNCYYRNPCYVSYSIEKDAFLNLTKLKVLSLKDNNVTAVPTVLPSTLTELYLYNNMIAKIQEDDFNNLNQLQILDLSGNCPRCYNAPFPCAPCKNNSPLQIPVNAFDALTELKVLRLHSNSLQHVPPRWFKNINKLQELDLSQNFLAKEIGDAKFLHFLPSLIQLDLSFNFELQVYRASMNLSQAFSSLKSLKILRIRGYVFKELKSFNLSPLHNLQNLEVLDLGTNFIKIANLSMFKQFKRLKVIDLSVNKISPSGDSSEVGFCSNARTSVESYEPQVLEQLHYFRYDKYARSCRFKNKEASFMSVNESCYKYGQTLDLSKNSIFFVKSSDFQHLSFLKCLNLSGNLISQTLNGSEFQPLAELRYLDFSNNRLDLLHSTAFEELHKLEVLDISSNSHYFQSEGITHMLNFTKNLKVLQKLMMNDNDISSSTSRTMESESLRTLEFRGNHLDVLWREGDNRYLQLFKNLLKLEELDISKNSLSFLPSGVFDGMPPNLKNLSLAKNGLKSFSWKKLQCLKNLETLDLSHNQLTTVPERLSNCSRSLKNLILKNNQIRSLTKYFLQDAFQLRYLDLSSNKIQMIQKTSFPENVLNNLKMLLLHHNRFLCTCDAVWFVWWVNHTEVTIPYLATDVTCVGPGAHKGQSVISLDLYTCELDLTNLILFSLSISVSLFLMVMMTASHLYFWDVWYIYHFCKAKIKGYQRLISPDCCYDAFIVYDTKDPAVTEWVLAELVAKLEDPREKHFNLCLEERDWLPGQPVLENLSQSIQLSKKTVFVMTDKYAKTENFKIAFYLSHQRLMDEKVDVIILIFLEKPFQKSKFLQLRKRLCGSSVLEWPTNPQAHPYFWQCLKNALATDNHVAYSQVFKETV
Summary of the method: as §1

human TLR9 = target: T3, human TLR9 (Homo sapiens, UniProt Q9NR96); test: TLR9 inhibition reporter assay (HEK-Blue cells, SEAP reporter, ODN2006 stimulation); details: HEK-Blue cells overexpressing human TLR9, SEAP reporter, ODN2006 5 nM
T3 construct: host or cells: HEK-Blue cells
T3 sequence (Q9NR96 26-1032): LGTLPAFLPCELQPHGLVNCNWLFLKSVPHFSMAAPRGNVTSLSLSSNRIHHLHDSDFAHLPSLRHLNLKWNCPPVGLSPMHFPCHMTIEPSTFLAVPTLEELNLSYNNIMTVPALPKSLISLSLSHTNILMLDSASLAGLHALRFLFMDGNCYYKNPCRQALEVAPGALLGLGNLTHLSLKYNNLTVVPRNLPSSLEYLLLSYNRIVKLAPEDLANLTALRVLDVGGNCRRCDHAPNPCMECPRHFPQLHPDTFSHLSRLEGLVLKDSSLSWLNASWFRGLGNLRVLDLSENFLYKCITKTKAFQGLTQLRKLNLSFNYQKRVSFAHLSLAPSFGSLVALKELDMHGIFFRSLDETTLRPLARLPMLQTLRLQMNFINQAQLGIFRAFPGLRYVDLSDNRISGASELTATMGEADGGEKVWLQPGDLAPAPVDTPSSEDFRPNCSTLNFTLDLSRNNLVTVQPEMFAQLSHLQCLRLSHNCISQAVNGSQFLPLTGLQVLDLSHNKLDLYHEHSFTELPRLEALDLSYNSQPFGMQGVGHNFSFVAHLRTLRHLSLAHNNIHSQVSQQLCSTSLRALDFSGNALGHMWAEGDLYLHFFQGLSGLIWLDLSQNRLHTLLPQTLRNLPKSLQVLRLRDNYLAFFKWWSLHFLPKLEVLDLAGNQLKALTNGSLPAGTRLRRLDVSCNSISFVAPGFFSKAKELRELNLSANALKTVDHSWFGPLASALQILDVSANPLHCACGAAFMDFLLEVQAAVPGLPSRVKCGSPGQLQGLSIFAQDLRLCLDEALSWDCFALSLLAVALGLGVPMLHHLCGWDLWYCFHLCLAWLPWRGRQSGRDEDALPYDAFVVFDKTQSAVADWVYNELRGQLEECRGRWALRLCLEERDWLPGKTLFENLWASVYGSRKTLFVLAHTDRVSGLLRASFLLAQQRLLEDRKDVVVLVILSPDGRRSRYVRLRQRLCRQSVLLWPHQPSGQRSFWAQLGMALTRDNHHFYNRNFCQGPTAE
Summary of the method: as §1

SMILES	IC50 (human TLR8)	IC50 (human TLR7)	IC50 (human TLR9)
Cc1cc(-c2[nH]c3ccc(C4CCC(N5CCOCC5)CC4)cc3c2C(C)C)cc(C)n1 (stereo not drawn) [Example 498]	0.018 µM	0.005 µM	0.531 µM
CNC1CCC(c2ccc3[nH]c(-c4cc(C)nc(C)c4)c(C(C)C)c3c2)CC1 (single isomer, unassigned) [Example 51]	0.011 µM	0.004 µM	0.602 µM
Cc1cc(-c2[nH]c3ccc(C4CCC(N(C)CC(=O)N(C)C)CC4)cc3c2C(C)C)cn2ncnc12 (single isomer, unassigned) [Example 178, 2-((4-(3-isopropyl-2-(8-methyl-[1,2,4]triazolo[1,5-a]pyridin-6-yl)-1H-indol-5-yl)cyclohexyl)(methyl)amino)-N,N-dimethylacetamide]	0.0024 µM	0.00023 µM	1.78 µM
Cc1cc(-c2[nH]c3ccc(CCN4CC[C@H](F)C4)cc3c2C(C)C)cn(C)c1=O [Example 408]	0.0023 µM	0.015 µM	13 µM
COc1cc(-c2[nH]c3ccc(C4CCC(NC(C)=O)CC4)cc3c2C(C)C)cn2ncnc12 (single isomer, unassigned) [Example 116, N-(4-(3-isopropyl-2-(8-methoxy-[1,2,4]triazolo[1,5-a]pyridin-6-yl)-1H-indol-5-yl)cyclohexyl)acetamide]	0.061 µM	0.009 µM	> 50 µM
Cc1cc(-c2[nH]c3ccc(C4CN(CCS(C)(=O)=O)CCO4)cc3c2C(C)C)cc(C)n1 (stereo not drawn) [Example 351]	0.031 µM	0.028 µM	48.3 µM
Cc1c(-c2[nH]c3ccc(C4CCC(N(C)C)CC4)cc3c2C(C)C)cn(C)c(=O)c1C (stereo not drawn) [Example 475]	0.028 µM	0.026 µM	10.6 µM
Cc1c(-c2[nH]c3ccc(C4CN(C5COC5)C4)cc3c2C(C)C)cn2ncnc2c1C [Example 544]	0.012 µM	0.005 µM	21 µM
COc1cc(-c2[nH]c3ccc(CC4CN(CCS(C)(=O)=O)C4)cc3c2C(C)C)cn2ncnc12 [Example 431]	0.0035 µM	0.002 µM	2.77 µM
Cc1cc(-c2[nH]c3ccc(CC4CCCN4Cc4ccccc4)cc3c2C(C)C)cn2ncnc12 (single isomer, unassigned) [Example 397, 5-[(1-benzylpyrrolidin-2-yl)methyl]-2-{8-methyl-[1,2,4]triazolo[1,5-a]pyridin-6-yl}-3-(propan-2-yl)-1H-indole]	0.0054 µM	0.003 µM	1.6 µM
COc1cc(-c2[nH]c3ccc(C4CCCN(C(=O)C5CCN(C)CC5)C4)cc3c2C(C)C)cn2ncnc12 (stereo not drawn) [Example 194]	0.023 µM	0.006 µM	12 µM
CN[C@H](C)C(=O)N1CCCC(c2ccc3[nH]c(-c4cc(C)nc(C)c4)c(C(C)C)c3c2)C1 (stereo partly drawn) [Example 217]	0.051 µM	0.005 µM	0.697 µM
Cc1c(-c2[nH]c3ccc(C4CCC(N5CC6(COC6)C5)CC4)cc3c2C(C)C)cn2ncnc2c1C (stereo not drawn) [Example 95]	0.0036 µM	0.002 µM	1.82 µM
COCCN1CC(c2ccc3[nH]c(-c4cn(C)c(=O)c(C)c4C)c(C(C)C)c3c2)C1 [Example 487]	0.0058 µM	0.045 µM	10.5 µM
Cc1cc(-c2[nH]c3ccc(C4CN(C5CCOC(C)(C)C5)C4)cc3c2C(C)C)cn2ncnc12 (stereo not drawn) [Example 269, 6-(5-(1-(2,2-dimethyltetrahydro-2H-pyran-4-yl)azetidin-3-yl)-3-isopropyl-1H-indol-2-yl)-8-methyl-[1,2,4]triazolo[1,5-a]pyridine]	0.0083 µM	0.005 µM	3.67 µM

The next compounds have a lower IC50 (human TLR8) than those just listed; values first:

IC50 (human TLR8)	IC50 (human TLR7)	IC50 (human TLR9)	SMILES
0.002 µM	0.00087 µM	4.76 µM	COc1cc(-c2[nH]c3ccc(C4CCC(N(C)CCC(F)(F)F)CC4)cc3c2C(C)C)cn2ncnc12 (stereo not drawn) [Example 75]
0.0004 µM	0.00055 µM	1.85 µM	Cc1c(-c2[nH]c3ccc(C4CCC(NC5(C)COC5)CC4)cc3c2C(C)C)cn2ncnc2c1C (stereo not drawn) [Example 48]
0.0006 µM	0.001 µM	4.45 µM	Cc1c(-c2[nH]c3ccc(C4CC(NCC(=O)N(C)C)C4)cc3c2C(C)C)cn2ncnc2c1C (stereo not drawn) [Example 566]
0.0021 µM	0.00084 µM	1.31 µM	COc1cc(-c2[nH]c3ccc(C4CN(C(C)C)C4)cc3c2C(C)C)cn2ncnc12 [Example 272]
0.00085 µM	0.001 µM	1.82 µM	COc1cc(-c2[nH]c3ccc(C4CNCCO4)cc3c2C(C)C)cn2ncnc12 (stereo not drawn) [Example 284]
0.0005 µM	0.005 µM	0.93 µM	Cc1cc(-c2[nH]c3ccc(C4CCNC4)cc3c2C(C)C)cc(C)n1 (stereo not drawn) [Example 590]
0.00076 µM	0.00021 µM	1.96 µM	COc1cc(-c2[nH]c3ccc(C4CCC(NC5(C)COC5)CC4)cc3c2C(C)C)cn2ncnc12 (single isomer, unassigned) [Example 44]
